The values that follow come from the supplement of paper PMC12613149.

Series [1] is described as follows: collision cross section (TIMS, N2 drift gas) of the primary ion; higher = larger gas-phase ion size.
A short description of series [2]: reversed-phase LC retention time (C18, 15 min MeOH gradient); higher = more hydrophobic / later elution.
[3] abbreviates: ionization mode: ESI+, ion species: [M+H]+.
[4] abbreviates: ionization mode: ESI-, ion species: [M-H]-.
The mark [5] stands for this setting: ionization mode: ESI+, ion species: [M]+.

As for `NS(=O)(=O)c1cc(C(=O)O)c(NCc2ccco2)cc1Cl` [Furosemide], the collision cross section worked out at 161.99 Å² in series [1] (setting [3]) and 172.55 Å² in series [1] (setting [4]). For the same molecule, the “reversed-phase LC retention time” value in series [2] (setting [3]) came out at 14.3 min; in series [2] (setting [4]), 9.47 min.

Molecule `O=C1CC2(CCCCC2)CN1` [Gabapentin-Lactam] displayed a collision cross section in series [1] (setting [3]) of 135.35 Å². In addition, the “reversed-phase LC retention time” value in series [2] (setting [3]) was 11.2 min.

As for `NCC1(CC(=O)O)CCCCC1` [Gabapentin], in series [1] (setting [3]), the collision cross section was found to be 139.22 Å². For the same molecule, in series [2] (setting [3]), the “reversed-phase LC retention time” value is 7.2 min.

In turn, `COc1ccc2c3c1O[C@H]1C[C@@H](O)C=C[C@@]31CCN(C)C2` [Galantamine] yielded a collision cross section in series [1] (setting [3]) of 169.25 Å². Besides, the “reversed-phase LC retention time” value in series [2] (setting [3]) was determined as 5.92 min.

Regarding `O=c1c(-c2ccc(O)cc2)coc2cc(O)cc(O)c12` [Genistein], the collision cross section is reported as 160.2 Å² in series [1] (setting [3]) and 159.59 Å² in series [1] (setting [4]). In addition, the results for the “reversed-phase LC retention time” value in series [2] (setting [3]) and in series [2] (setting [4]) were 11.9 min and 10.2 min, respectively.

As for `C#C[C@]1(O)C=C[C@H]2[C@@H]3CCC4=CC(=O)CC[C@@H]4[C@H]3CC[C@@]21CC` [Gestoden], in series [1] (setting [3]), the collision cross section came to 181.55 Å². Besides, the “reversed-phase LC retention time” value in series [2] (setting [3]) was determined as 14 min.

Turning to `COc1ccc(Cl)cc1C(=O)NCCc1ccc(S(=O)(=O)NC(=O)NC2CCCCC2)cc1` [Glibenclamide], the collision cross section in series [1] (setting [3]) is 208.58 Å²; in series [1] (setting [4]) it was 214.7 Å². Also, the “reversed-phase LC retention time” value in series [2] (setting [3]) was determined as 14.8 min; in series [2] (setting [4]), 14 min.

Regarding `CCC1=C(C)CN(C(=O)NCCc2ccc(S(=O)(=O)NC(=O)NC3CCC(C)CC3)cc2)C1=O` (centres undefined) [Glimepiride], the collision cross section in series [1] (setting [3]) turned out to be 216.66 Å²; in series [1] (setting [4]), 215.02 Å². In addition, the “reversed-phase LC retention time” value came out at 15.3 min in series [2] (setting [3]) and 14.3 min in series [2] (setting [4]).

For the molecule `CC1(C)[C@@H](O[C@H]2O[C@H](C(=O)O)[C@@H](O)[C@H](O)[C@H]2O[C@@H]2O[C@H](C(=O)O)[C@@H](O)[C@H](O)[C@H]2O)CC[C@]2(C)[C@H]3C(=O)C=C4[C@@H]5C[C@@](C)(C(=O)O)CC[C@]5(C)CC[C@@]4(C)[C@]3(C)CC[C@@H]12` [Glycyrrhizic acid], in series [1] (setting [4]), the collision cross section came out at 282.7 Å². Further, the “reversed-phase LC retention time” value in series [2] (setting [4]) was 11.8 min.

On to `NC(N)=NC(=O)Cc1c(Cl)cccc1Cl` [Guanfacine], for which the collision cross section in series [1] (setting [3]) is 152.13 Å². Further, in series [2] (setting [3]), the “reversed-phase LC retention time” value was found to be 9.65 min.

In the case of `O=C(O)C(F)(OC(F)(F)C(F)(F)C(F)(F)F)C(F)(F)F` (centres undefined) [HFPO-DA], in series [1] (setting [4]), the collision cross section was found to be 206.28 Å². Also, the “reversed-phase LC retention time” value in series [2] (setting [4]) was found to be 13 min.

In the case of `CC(Oc1ccc(Oc2ncc(C(F)(F)F)cc2Cl)cc1)C(=O)O` (centres undefined) [Haloxyfop-P], the collision cross section in series [1] (setting [3]) was found to be 181.48 Å²; in series [1] (setting [4]), 190.86 Å². Moreover, the “reversed-phase LC retention time” value in series [2] (setting [3]) turned out to be 15.5 min; in series [2] (setting [4]), 14 min.

On to `Cc1nccc2c1[nH]c1ccccc12` [Harman], for which the collision cross section in series [1] (setting [3]) is 136.39 Å²; in series [1] (setting [4]), 135.7 Å². Moreover, the “reversed-phase LC retention time” value in series [2] (setting [3]) came to 8.86 min; in series [2] (setting [4]), 13.4 min.

For the molecule `COc1ccc2c(c1)[nH]c1c(C)nccc12` [Harmine], the collision cross section came out at 145.04 Å² in series [1] (setting [3]) and 145.84 Å² in series [1] (setting [4]). Besides, the results for the “reversed-phase LC retention time” value in series [2] (setting [3]) and in series [2] (setting [4]) were 9.71 min and 13.5 min, respectively.

On to `BrC1CCC(Br)C(Br)CCC(Br)C(Br)CCC1Br` (centres undefined) [Hexabromocyclododecane (two peaks)], for which, in series [1] (setting [4]), the collision cross section is reported as 178.05 Å². Also, in series [2] (setting [4]), the “reversed-phase LC retention time” value turned out to be 18.9 min.

For the molecule `CCCCCCCCCCCCCCCC[n+]1ccccc1` [Hexadecylpyridinium], the collision cross section in series [1] (setting [5]) stood at 197.5 Å². For the same molecule, the “reversed-phase LC retention time” value in series [2] (setting [5]) stood at 17.5 min.

Consider `CCCCCCCCCCCCCCCC[N+](C)(C)C` [Hexadecyltrimethylammonium], for which the collision cross section in series [1] (setting [5]) stood at 196.39 Å². The “reversed-phase LC retention time” value in series [2] (setting [5]) worked out at 17.4 min.

In series [1] (setting [4]), `NS(=O)(=O)c1cc2c(cc1Cl)NCNS2(=O)=O` [Hydrochlorothiazide] returned a collision cross section of 152.66 Å². The “reversed-phase LC retention time” value in series [2] (setting [4]) was 4.93 min.

With `CC(=O)OCC(=O)[C@@]1(O)CC[C@H]2[C@@H]3CCC4=CC(=O)CC[C@]4(C)[C@H]3[C@@H](O)C[C@@]21C` [Hydrocortisonacetate], in series [1] (setting [4]), the collision cross section is recorded as 198.1 Å². Further, the “reversed-phase LC retention time” value in series [2] (setting [4]) is 13.7 min.

Take `C[C@]12CCC(=O)C=C1CC[C@@H]1[C@@H]2[C@@H](O)C[C@@]2(C)[C@H]1CC[C@]2(O)C(=O)CO` [Hydrocortisone]: the collision cross section in series [1] (setting [3]) is recorded as 189.25 Å². Also, the “reversed-phase LC retention time” value in series [2] (setting [3]) worked out at 12.4 min.

`O=c1c(O[C@@H]2O[C@H](CO)[C@H](O)[C@H](O)[C@H]2O)c(-c2ccc(O)c(O)c2)oc2cc(O)cc(O)c12` [Hyperin] yielded a collision cross section in series [1] (setting [4]) of 201.31 Å². For the same molecule, the “reversed-phase LC retention time” value in series [2] (setting [4]) amounted to 7.66 min.

For `CCC(C)OC(=O)N1CCCCC1CCO` (centres undefined) [Icaridin], the collision cross section in series [1] (setting [3]) turned out to be 152.87 Å². Besides, the “reversed-phase LC retention time” value in series [2] (setting [3]) was determined as 13.6 min.

`O=P1(NCCCl)OCCCN1CCCl` (centres undefined) [Ifosfamide] came in with a collision cross section in series [1] (setting [3]) of 148.36 Å². Besides, the “reversed-phase LC retention time” value in series [2] (setting [3]) amounted to 10.2 min.

In turn, `C=CCOC(Cn1ccnc1)c1ccc(Cl)cc1Cl` (centres undefined) [Imazalil] yielded a collision cross section in series [1] (setting [3]) of 167.87 Å². Further, the “reversed-phase LC retention time” value in series [2] (setting [3]) turned out to be 12.7 min.

`CC(C)C1(C)N=C(c2ncccc2C(=O)O)NC1=O` (centres undefined) [Imazapyr] yielded a collision cross section in series [1] (setting [3]) of 156.96 Å². Besides, the “reversed-phase LC retention time” value in series [2] (setting [3]) stood at 8.78 min.

`NC1=NCCN1Cc1ccc(Cl)nc1` [Imidacloprid-guanidine] registered a collision cross section in series [1] (setting [3]) of 148.89 Å². Also, the “reversed-phase LC retention time” value in series [2] (setting [3]) amounted to 6.21 min.

`O=C1NCCN1Cc1ccc(Cl)nc1` [Imidacloprid-urea] came in with a collision cross section in series [1] (setting [3]) of 143.26 Å². Also, in series [2] (setting [3]), the “reversed-phase LC retention time” value amounted to 8.55 min.

On to `O=[N+]([O-])/N=C1\NCCN1Cc1ccc(Cl)nc1` [Imidacloprid], for which the collision cross section was found to be 155.98 Å² in series [1] (setting [3]) and 157.08 Å² in series [1] (setting [4]). For the same molecule, the “reversed-phase LC retention time” value in series [2] (setting [3]) was 8.67 min; in series [2] (setting [4]), 8.7 min.

`O=Cc1c[nH]c2ccccc12` [Indole-3-carboxyaldehyde] came in with a collision cross section in series [1] (setting [4]) of 122.39 Å². For the same molecule, the “reversed-phase LC retention time” value in series [2] (setting [4]) came to 9.34 min.
